# Legend:
# Settings in all cases: human; call rule not given here
# [1] = tested on: Hepatotoxicity; assay: FDA HLAED, liver enzyme composite activity
# [2] = tested on: Hepatotoxicity; assay: FDA HLAED, alkaline phosphatase increase
# [3] = tested on: Hepatotoxicity; assay: FDA HLAED, serum glutamic oxaloacetic transaminase (SGOT) increase
# [4] = tested on: Hepatotoxicity; assay: FDA HLAED, serum glutamic pyruvic transaminase (SGPT) increase
# [5] = tested on: Hepatotoxicity; assay: FDA HLAED, lactate dehydrogenase (LDH) increase
# [6] = tested on: Hepatotoxicity; assay: FDA HLAED, gamma-glutamyl transferase (GGT) increase
# Wherever GGT Increase - Index Value is given: reference of the scale not given here.
# Wherever LDH Increase - Index Value is given: reference of the scale not given here.
SMILES,Composite Activity - Active [1],Composite Activity - Marginal [1],Composite Activity - Score [1],Alkaline Phosphatase Increase - Activity Score [2],Alkaline Phosphatase Increase - Index Value [2],Alkaline Phosphatase Increase - Number of Reports [2],SGOT Increase - Activity Score [3],SGOT Increase - Index Value [3],SGOT Increase - Number of Reports [3],SGPT Increase - Activity Score [4],SGPT Increase - Index Value [4],SGPT Increase - Number of Reports [4],LDH Increase - Activity Score [5],LDH Increase - Index Value [5],LDH Increase - Number of Reports [5],GGT Increase - Activity Score [6],GGT Increase - Index Value [6],GGT Increase - Number of Reports [6]
CCCCCCCN(CC)CCCC(O)c1ccc(NS(C)(=O)=O)cc1 (configuration not stated) [IBUTILIDE],0,0,Inactive,Inactive,0,< 4,Inactive,0,< 4,Inactive,0,< 4,Inactive,0,< 4,Inactive,0,< 4
CC(=O)[C@]1(O)Cc2c(O)c3c(c(O)c2[C@@H](O[C@H]2C[C@H](N)[C@H](O)[C@H](C)O2)C1)C(=O)c1ccccc1C3=O [IDARUBICIN],0,0,Inactive,Inactive,0,< 4,Inactive,0,< 4,Inactive,0,< 4,Inactive,0,< 4,Inactive,0,< 4
O=P1(NCCCl)OCCCN1CCCl (configuration not stated) [IFOSFAMIDE],1,0,Inactive,Inactive,5,< 4,Active,17.5,>= 4,Inactive,7.5,< 4,Inactive,7.5,< 4,Inactive,0,< 4
Nc1cc(-c2ccncc2)c[nH]c1=O [INAMRINONE],0,0,Inactive,Inactive,2.2,< 4,Inactive,6.6,< 4,Inactive,4.4,< 4,Inactive,2.2,< 4,Inactive,0,< 4
CC1Cc2ccccc2N1NC(=O)c1ccc(Cl)c(S(N)(=O)=O)c1 (configuration not stated) [INDAPAMIDE],0,0,Inactive,Inactive,0.5,< 4,Inactive,1,< 4,Inactive,0.5,< 4,Inactive,0.5,< 4,Inactive,0,< 4
CC(=O)N(CC(O)CN(C(C)=O)c1c(I)c(C(=O)NCC(O)CO)c(I)c(C(=O)NCC(O)CO)c1I)c1c(I)c(C(=O)NCC(O)CO)c(I)c(C(=O)NCC(O)CO)c1I (configuration not stated) [IODIXANOL],0,0,Inactive,Inactive,0,< 4,Inactive,0,< 4,Inactive,0,< 4,Inactive,0,< 4,Inactive,0,< 4
CC(=O)N(CC(O)CO)c1c(I)c(C(=O)NCC(O)CO)c(I)c(C(=O)NCC(O)CO)c1I (configuration not stated) [IOHEXOL],0,0,Inactive,Inactive,144.9,< 4,Inactive,144.9,< 4,Inactive,0,< 4,Inactive,144.9,< 4,Inactive,0,< 4
C[C@H](O)C(=O)Nc1c(I)c(C(=O)NC(CO)CO)c(I)c(C(=O)NC(CO)CO)c1I [IOPAMIDOL],1,0,Inactive,Inactive,0,< 4,Inactive,526.3,< 4,Inactive,0,< 4,Active,1579,< 4,Inactive,0,< 4
COCC(=O)Nc1c(I)c(C(=O)NCC(O)CO)c(I)c(C(=O)N(C)CC(O)CO)c1I (configuration not stated) [IOPROMIDE],0,0,Inactive,Inactive,0,< 4,Inactive,0,< 4,Inactive,0,< 4,Inactive,0,< 4,Inactive,0,< 4
